Data taken from patent publication US20030165545A1, “Ophthalmic compositions including oil-in-water emulsions, and methods for making and using same” (Allergan, Inc., priority 2002, published 2003).
Where two headings read alike, the source gives them in different places.

Test system: Intra Ocular Pressure
Details: about 0.131% in a composition of Example 1
Procedure: Approximately 0.05 mL of the composition is administered directly to the eye at time 0.

SMILES: Brc1c(NC2=NCCN2)ccc2nccnc12 [5-bromo-6-(2-imidozolin-2-ylamino) quinoxaline]
- percent change of Intra Ocular Pressure (mm Hg) (1 hr after about 0.05 mL to the eye): −10.4%
- percent change of Intra Ocular Pressure (mm Hg) (2 hr after about 0.05 mL to the eye): −16.0%
- percent change of Intra Ocular Pressure (mm Hg) (4 hr after about 0.05 mL to the eye): −09.5%
- percent change of Intra Ocular Pressure (mm Hg) (6 hr after about 0.05 mL to the eye): −09.4%
